# Legend:
# folate receptor α (FRα) = target: T1, folate receptor α (FRα) (Homo sapiens, UniProt P15328); assay: Intact cell competitive binding assay, displacement of [3H]-folic acid from FRα in KB cells
# T1 construct: endogenous in cells; host or cells: KB cells (FRα++)
# Protocol: (§1) In order to determine whether the LV isomers were substrates for either folate receptor α (FRα), RFC and/or PCFT, we used model systems with established overexpression of these receptors or transporters ([Westerhof et al., 1995a]; [Westerhof et al., 1995b]; [Lasry et al., 2008]; [Van der Heijden et al., 2009]).
# For FRα we used KB cells ([Westerhof et al., 1995b]). An intact cell binding assay for competitive binding was performed as described previously ([Westerhof et al., 1995a]). Briefly, cells were washed with Hanks balanced salt solution and 6 mM glucose (HBSS, pH 7.4), suspended in 1 mL of this solution (1*10^6 for KB cells) and incubated at 4°C for 15 min with 100 pmol [^3H]-folic acid [(^3H)-FA], in the presence and absence of unlabelled folic acid or LV stereoisomers. Cells were collected by centrifugation and analysed for radioactivity. Relative affinities for FRα were defined as the inverse ratio of compound to displace 50% of radioactive folic acid from FRα. The relative affinity of folic acid was set at 1.
# [1] = target: T2, reduced folate carrier (RFC/SLC19A1) (Homo sapiens, UniProt P41440); assay: Inhibition of RFC-mediated [3H]-l-LV influx in CEM-7A cells; assay type: cell-based; conditions: 5 µM [3H]-l-LV, 2 min, 37°C, read-out: Concentration for 50% inhibition of [3H]-l-LV influx (RFC)
# T2 construct: CEM-7A cells, which display 30-fold RFC overexpression relative to wild-type CCRF-CEM cells; endogenous in cells; host or cells: CEM-7A (CCRF-CEM variant, RFC+++ 30-fold)
# T2 sequence (P41440 1-591): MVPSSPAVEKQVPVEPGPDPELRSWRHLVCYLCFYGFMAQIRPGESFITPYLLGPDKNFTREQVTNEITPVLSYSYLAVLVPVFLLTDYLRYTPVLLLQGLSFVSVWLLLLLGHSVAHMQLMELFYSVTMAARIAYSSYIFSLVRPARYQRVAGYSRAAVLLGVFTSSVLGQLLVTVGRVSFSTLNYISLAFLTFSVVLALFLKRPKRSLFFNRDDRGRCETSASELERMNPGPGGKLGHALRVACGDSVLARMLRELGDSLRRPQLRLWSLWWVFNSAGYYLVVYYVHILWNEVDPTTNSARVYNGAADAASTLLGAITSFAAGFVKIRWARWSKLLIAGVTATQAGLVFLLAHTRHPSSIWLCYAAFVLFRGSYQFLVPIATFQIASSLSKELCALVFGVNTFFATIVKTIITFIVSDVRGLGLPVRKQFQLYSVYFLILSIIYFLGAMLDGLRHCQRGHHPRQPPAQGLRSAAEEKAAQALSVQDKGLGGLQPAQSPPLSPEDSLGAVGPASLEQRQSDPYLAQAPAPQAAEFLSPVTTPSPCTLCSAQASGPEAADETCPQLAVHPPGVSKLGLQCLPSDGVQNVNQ
# Protocol: as §1
# CEM-7A cells (2 × 10^6) were suspended in 1 mL HBSS and the assay was initiated by addition of 25 μL 200 μM [^3H]-l-LV; 5,000 pmol (i.e., 5 μM final concentration). Incubations proceeded for 2 min at 37°C in the absence and presence of increasing amounts of unlabelled LV/antifolate drug. Blanks consisted of a separate incubation at 4°C or incubation with 100-fold molar excess of unlabelled l-LV. [^3H]-l-LV influx was terminated by adding 9 mL ice-cold HBSS, centrifugation and an additional wash of the cells with 10 mL ice-cold buffer. Cell pellets were then assessed for radioactivity. Relative affinities for RFC are expressed as the concentration of unlabelled drug necessary to inhibit [^3H]-l-LV uptake by 50%.
# human PCFT = target: T3, human PCFT (Homo sapiens, UniProt Q96NT5); assay: Inhibition of PCFT-mediated [3H]-l-LV influx in CHO/C5-PCFT cells; assay type: cell-based, Chinese hamster (CHO cells); conditions: CHO/C5/PCFT cells, 2.5 µM [3H]-l-LV, pH 5.5, 3 min; read-out: Concentration for 50% inhibition of PCFT-mediated [3H]-l-LV influx
# T3 construct: expressed in transfected cells; host or cells: CHO/C5 (RFC-deficient Chinese hamster ovary cells, no PCFT)
# T3 sequence (Q96NT5 1-459): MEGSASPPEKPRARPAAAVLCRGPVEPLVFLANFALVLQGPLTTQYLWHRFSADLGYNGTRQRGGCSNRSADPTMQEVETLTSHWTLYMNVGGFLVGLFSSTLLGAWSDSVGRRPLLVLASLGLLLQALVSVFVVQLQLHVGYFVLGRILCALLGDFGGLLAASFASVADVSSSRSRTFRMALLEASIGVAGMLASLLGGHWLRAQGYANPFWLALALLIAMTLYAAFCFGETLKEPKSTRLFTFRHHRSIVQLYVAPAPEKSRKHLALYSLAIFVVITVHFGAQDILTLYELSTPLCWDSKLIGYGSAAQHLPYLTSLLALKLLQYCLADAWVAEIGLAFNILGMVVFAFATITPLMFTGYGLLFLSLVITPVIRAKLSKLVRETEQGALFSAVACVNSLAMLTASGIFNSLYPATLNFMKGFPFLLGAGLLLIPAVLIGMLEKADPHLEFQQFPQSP
# Protocol: as §1
# The competitive inhibition by 2.5 μM [^3H]-l-LV influx of PCFT was measured essentially as described for the RFC assay, except that the incubation time was 3 min, at pH 5.5 (the optimal pH for PCFT) and pH 7.4 with increasing amounts of unlabelled LV stereoisomers/antifolate drug. For PCFT too, relative affinities were expressed as the concentration of unlabelled drug necessary to inhibit 50% of [^3H]-l-LV influx.
# WiDr LF/LV cells = assay: Growth inhibition, SRB assay, WiDr LF/LV; assay type: cell-based, human; conditions: WiDr-LF cells, 5 µM d-LV
# Protocol: (§2) Briefly, cells were seeded in triplicate in 96-well plates at their pre-established optimal density (CHO cells: 2,500 cells/100 μL; WiDr and HT29: 3,500 cells/100 μL; WiDr-LF/LV, LS174T: 5,000 cells/100 μL; CaCo2, CaCo2-LF/LV, H292, H28 and MSTO-211H: 6,000 cells/100 μL; H460, SW948 and SW1398: 7,000 cells/100 μL) and were allowed to attach for ∼ 24 h at 37°C in 5% CO2 and 100% humidified incubator. Thereafter, 100 μL of drug dilution without LV, or with 5 μM l-LV/5 μM d-LV/10 μM dL-LV (or any LV alone) were added. Cells were allowed to grow for 72 h at 37°C in 5% CO2 and 100% humidity. The t = 0 h control plate consisted of cells plated on the same day as the other cells, but after 24 h at 37°C in 5% CO2 and 100% humidity, only 100 μL medium was added and the cells were fixed immediately with 50% trichloroacetic acid (TCA) in milliQ water (25 μL per well) and put at 4°C for at least 1 h. Plates were washed five times with water and dried. Cells were stained with the SRB protein dye (0.4% (w/v) in 1% acetic acid. Excess dye was washed away four times with 1% acetic acid and plates were dried again. 200 μL of Tris (10 mM Tris (hydroxymethyl)-aminomethane in MQ) was added and optical density (OD) was read at 492 nm after mixing 2–3 min on a plate shaker.
# colon cancer cell lines = assay: Growth inhibition, SRB assay, panel of colon cancer cell lines; assay type: cell-based, human; conditions: all colon cancer cell lines
# Protocol: as §2
# [2] = target: T4, thymidylate synthase (TS) (Homo sapiens, UniProt P04818); assay: TS in situ inhibition assay (TSIA) in colon cancer cells; assay type: cell-based; conditions: WiDr, 5 µM d-LV
# T4 construct: The principle of this assay is the measurement of TS enzymatic activity in intact cells; endogenous in cells; host or cells: colon cancer cell lines (WiDr, WiDr-LF, SW1398, LS174T and others)
# T4 sequence (P04818 2-313 limits assumed): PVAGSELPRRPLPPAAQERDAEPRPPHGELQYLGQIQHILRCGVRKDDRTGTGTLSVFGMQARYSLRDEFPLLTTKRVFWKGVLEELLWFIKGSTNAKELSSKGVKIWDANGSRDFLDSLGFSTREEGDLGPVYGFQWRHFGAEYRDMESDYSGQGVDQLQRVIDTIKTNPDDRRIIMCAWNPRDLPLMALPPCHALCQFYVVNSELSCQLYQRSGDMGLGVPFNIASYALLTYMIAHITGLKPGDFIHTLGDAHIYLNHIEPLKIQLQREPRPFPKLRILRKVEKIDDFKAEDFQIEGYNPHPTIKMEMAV
# Excerpt: The principle of this assay is the measurement of TS enzymatic activity in intact cells. Intact cells will readily internalize radioactively labelled [5-^3H]-deoxycytidine, which will be rapidly converted by deoxycytidine kinase (dCK) to [5-^3H]-dCMP and subsequently deaminated to [5-^3H]-dUMP, which will then serve as a substrate in the TS catalysed reaction to dTMP and ^3H2O; the quantity of ^3H2O formed over time is a measure of intracellular TS activity. […] This is because dCK has a higher, cell cycle independent activity than thymidine kinase 1, which is a cell cycle dependent enzyme. For this purpose, cancer cells were cultured in six wells plates at 2.5 × 10^5 cells/2 mL/well for 24 h. Thereafter, cells were exposed to drugs with or without the LV formulations at the indicated concentrations for 4 h. 2 h before the end of the incubation period [5-^3H]-2′-deoxycytidine (final concentration 1 µM) was added to the cells. […] In most cell lines we quantified dCK activity and dCK mRNA levels.
# T1 sequence (P15328 25-257): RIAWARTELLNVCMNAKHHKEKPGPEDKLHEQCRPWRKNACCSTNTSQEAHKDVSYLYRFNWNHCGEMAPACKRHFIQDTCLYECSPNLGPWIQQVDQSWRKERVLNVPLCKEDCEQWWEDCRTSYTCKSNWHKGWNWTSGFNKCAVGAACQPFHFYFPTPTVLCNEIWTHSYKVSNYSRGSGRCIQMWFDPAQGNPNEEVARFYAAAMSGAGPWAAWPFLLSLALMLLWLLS
smiles,measurement,setting,value
"Nc1nc2c(c(=O)[nH]1)N(C=O)[C@H](CNc1ccc(C(=O)N[C@@H](CCC(=O)O)C(=O)O)cc1)CN2 [d-LV, (6R)-leucovorin]",Molar excess over folic acid required for displacement of [3H]-FA binding from FRα,folate receptor α (FRα),69 fold
same,Relative affinity for FRα,"folate receptor α (FRα); 100 pmol [3H]-FA, inverse ratio of amount of drug displacing 50% of [3H]-FA, FA set to 1",0.016
same,IC50,[1],44 µM
same,IC50,human PCFT,13.3 µM
same,Increase of IC50 value for 5FU by d-LV,WiDr LF/LV cells,1.5 fold
same,Modulation of 5FU sensitivity,colon cancer cell lines,ineffective
same,Protective effect on the TSIA against antifolates,[2],does not display any protective effect
